Test results from patent US11786523B2, “Composition and method for reducing thrombocytopenia” (BEYONDSPRING PHARMACEUTICALS, INC., priority 2018, dated 2023).

Legend:
[1] = tested on: gemcitabine-induced thrombocytopenia; assay: Effects of plinabulin on hematology parameters (platelet counts) following gemcitabine administration in the rat; type: in vivo
Protocol: The effects of plinabulin on the hematology parameters following changes induced by gemcitabine administration in the rat were evaluated. The vehicle was prepared using 7.11% Tween 80 (v/v): 25.5% Propylene glycol (v/v): 67.4% D5W (v/v). D5W is 5% dextrose in water for injection.
Plinabulin or Pegfilgrastim were first dissolved in the Tween 80-PG mixture and then diluted with D5W. Test item was dissolved in Tween 80-PG mixture on the day before and stored at RF. D5W was added on the day of dosing to complete the formulation.
Animals were randomized based on body weight and/or absolute neutrophil counts and assigned to groups. Before the initiation of dosing, any assigned animals considered unsuitable for use in the study were replaced by alternate animals obtained from the same shipment and maintained under the same environmental conditions. Each animal was uniquely identified using indelible ink. A minimum acclimation period of 5 days was allowed between animal receipt and the start of treatment in order to accustom the animals to the laboratory environment.
For the lab evaluation, the animal blood was collected by jugular venipuncture. Samples (0.3 mL) were collected in EDTA tubes. Additional blood samples may be obtained (e.g., due to clotting of non-serum samples) if permissible sampling frequency and blood volume are not exceeded. After collection, samples were transferred to Clinical Laboratories for hematology analysis using the Advia and results entered into the Provantis® system.
Administration of Inducing Agent
1. Gemcitabine; Groups 1, 3 and 4
Dosing regimen: Single dosing on Day 1
Intravenously (IV bolus) over ˜1 minute at a dose volume of 5 mL/kg.
Group 2 received Vehicle.
2. Pegfilgrastim; Groups 2 and 4
Dosing regimen: Single dosing on Day 2, 24 hours after Gemcitabine
Route of administration: Subcutaneous (SC) injection.
Dose volume: 10 mL/kg, based on the most recent body weight measurement
Dosing regimen: Single dosing on Day 1, 1 hr after Gemcitabine
Route of administration: Intra-peritoneal (IP) injection.
Group 1 received Vehicle.
The dosing time points for groups 1 to 4 include days −3, 1, 2, 3, 4, 5, 6, 7, 8, 9 and 10. Additional blood samples may be obtained (e.g., due to clotting of non-serum samples) if permissible sampling frequency and blood volume are not exceeded. After collection, samples will be transferred to Clinical Laboratories for hematology analysis using the Advia and results entered into the Provantis® system.

[2] = tested on: thrombocytopenia in patients receiving docetaxel; assay: Phase 2/3 randomized study of plinabulin versus pegfilgrastim in patients with solid tumors receiving docetaxel myelosuppressive chemotherapy (platelet count, thrombocytopenia); type: in vivo, human; conditions: patients on docetaxel 75 mg/m^2, preliminary; for change of platelet count (percent) from day 1 to day 15: pegfilgrastim 6 mg vs plinabulin 20 mg/m^2, FIG. 2; for development of thrombocytopenia (percentage of patients at each grade): plinabulin 20 mg/m^2 vs pegfilgrastim 6 mg, FIG. 5
Protocol: The effects of plinabulin on the thrombocytopenia is studied in comparison to pegfilgrastim. A phase 2/3, multicenter, randomized, double blind study is performed with plinabulin versus pegfilgrastim in patients with solid tumors receiving docetaxel myelosuppressive chemotherapy is evaluated. The patients are on study for approximately 5 months, including screening, on treatment, and follow-up. Study design: This is a multicenter, randomized study with an open label phase 2 portion and a double blind phase 3 portion. Approximately 190 patients are enrolled in this study. All patients receive docetaxel at a dose of 75 mg/m^2. In Phase 2, only patients with advanced or metastatic NSCLC after failing platinum-based therapy are enrolled. In Phase 3, patients with one of the following diagnosis are enrolled: advanced or metastatic breast cancer, who have failed<5 prior lines of chemotherapy; advanced or metastatic NSCLC who have previously received platinum-based therapy and have either disease progression, are intolerant of platinum-based therapy or, in the opinion of the investigator, would benefit from docetaxel chemotherapy; or hormone refractory (androgen independent) metastatic prostate cancer. The eligibility of all patients will be determined during a 28-day screening period. Phase 2 (Open Label): Approximately 40 patients with advanced or metastatic NSCLC are enrolled. Patients are randomly assigned with approximately 10 patients enrolled in each arm, with the arm designation and planned intervention as follows: Arm 1: Docetaxel (75 mg/m^2)+pegfilgrastim (6 mg) Arm 2: Docetaxel (75 mg/m^2)+plinabulin (20 mg/m^2) Arm 3: Docetaxel (75 mg/m^2)+plinabulin (10 mg/m^2) Arm 4: Docetaxel (75 mg/m^2)+plinabulin (5 mg/m^2) Once the study is temporarily closed to enrollment in phase 2, a PK/PD analysis is performed to determine the RP3D. The PK/PD analysis is done by an independent party at the time 40 patients in Phase 2 have completed at least Cycle 1. Treatments Administered: Both Phase 2 and Phase 3, Cycles 1 to 4, consist of docetaxel 75 mg/m^2 administered by intravenous (IV) infusion on Day 1 over 60 minutes (±5 minutes) every 21 days. In the phase 2 portion, on Day 1 of each cycle, 1.5 hours (±10 minutes) after the start time of docetaxel infusion (i.e., approximately 30 minutes after the end of docetaxel infusion), patients assigned to a plinabulin arm (arms 2-4) get a single intravenous infusion of plinabulin at their assigned dose over 30 minutes (±5 minutes). Thus, the wait time between end of docetaxel infusion and start of the plinabulin infusion is approximately 30 minutes. On Day 2 of each cycle, ≥24 hours after completing chemotherapy, patients assigned to pegfilgrastim (arm 1) receive a single dose of pegfilgrastim (6 mg) (subcutaneous injection). Laboratory test results (hematology and serum chemistry) are collected via a central laboratory. Safety laboratory tests are required prior to treatment on Day 1 of each cycle and can be collected by a local laboratory; however, all other scheduled blood samples as per the schedule assessments and procedure table must also be obtained for central laboratory assessment. Urinalysis is performed at screening only. CD34+ counts are established through a fluorescence-activated cell sorting (FACS) method. Duration of Treatment: Patients received treatment with study drug for up to 4 cycles in this study, a treatment cycle is 21 days; thereafter, patients may continue receiving docetaxel and pegfilgrastim at the Investigator's discretion. After completion of 4 cycles, patients completed a safety follow-up visit 30 days (±2 days) after the last dose of study drug. If, in the opinion of the investigator, the patient would benefit from more than 4 cycles of docetaxel and open label pegfilgrastim, then the fifth cycle would not start until completion of the safety follow-up visit (in this instance, the safety follow-up visit will be Cycle 4 Day 21).

CC(C)(C)c1[nH]cnc1/C=c1\[nH]c(=O)/c(=C/c2ccccc2)[nH]c1=O [plinabulin, Plinabulin]
platelet counts versus gemcitabine alone group ([1]; Days 8 and 9, gemcitabine and plinabulin group): statistically greater | effect on thrombocytopenia observed with gemcitabine alone ([1]; gemcitabine 100 mg/kg IV + plinabulin 7.5 mg/kg IP, FIG. 1): reduced the thrombocytopenia observed with gemcitabine alone | platelet counts ([1]; gemcitabine 100 mg/kg IV Day 1 + plinabulin 7.5 mg/kg IP 1 hr after, all sampling days, FIG. 1): > 500 ×10^3 cells/μL | recovery from gemcitabine-induced thrombocytopenia versus gemcitabine alone ([1]; gemcitabine and plinabulin group): more rapid | percentage of patients with greater than 30% platelet decrease from baseline, compared with pegfilgrastim group ([2]; cycles 1-4, plinabulin groups, FIG. 3): lower percentages | change of platelet count (percent) from day 1 to day 15 [2]: more effective in maintaining the platelet count | development of thrombocytopenia (percentage of patients at each grade) [2]: did not develop thrombocytopenia | incidence of developing thrombocytopenia (percentage of patients at each grade) ([2]; plinabulin 5, 10 and 20 mg/m^2 vs pegfilgrastim 6 mg, FIG. 4): lower incidences of developing thrombocytopenia than the pegfilgrastim group

B1: pegfilgrastim (protein, chains of the INN, looked up)
chain: TPLGPASSLPQSFLLKCLEQVRKIQGDGAALQEKLCATYKLCHPEELVLLGHSLGIPWAPLSSCPSQALQLAGCLSQLHSGLFLYQGLLQALEGISPELGPTLDTLQLDVADFATTIWQQMEELGMAPALQPTQGAMPAFASAFQRRAGGVLVASHLQSFLEVSYRVLRHLAQP
modifications: PEG
notes: granulocyte-colony stimulating factor (G-CSF) drug used as comparator
percentage of patients with greater than 30% platelet decrease from baseline ([2]; cycles 1-4, FIG. 3): ~85% | change of platelet count (percent) from day 1 to day 15 [2]: greater than the plinabulin group | development of thrombocytopenia (percentage of patients at each grade) [2]: some patients in the pegfilgrastim group developed thrombocytopenia
